Laboratory results from article PMC8286840, “Identifying SARS-CoV-2 antiviral compounds by screening for small molecule inhibitors of Nsp3 papain-like protease” (Biochemical Journal, 2021).
Counter-ions that a name gives are not always drawn. Like-named read-outs stand apart in the source and are kept apart here.

How the values were obtained:
[1] = target: T1, SARS-CoV-2 PLpro (nsp3 1564–1878) (Severe acute respiratory syndrome coronavirus 2, UniProt P0DTD1); experiment: biochemical; parameters: FRET-quenched peptide (Pro3) cleavage by PLpro, 10 min pre-incubation, slope over 20 min, normalised to no-compound control; settings: high concentration screen, read-out: % of control remaining
[2] = target: T1, SARS-CoV-2 PLpro (nsp3 1564–1878); experiment: biochemical; parameters: FRET-quenched peptide (Pro3) cleavage by PLpro, 10 min pre-incubation, slope over 20 min, normalised to no-compound control; settings: low concentration screen, read-out: % of control remaining

CCN(CC)CCNC(=O)c1c(C)[nH]c(/C=C2\C(=O)Nc3ccc(F)cc32)c1C [Sunitinib]
remaining activity at 3.75 µM ([1]; Well no.=2703): 100% | remaining activity at 1.25 µM ([2]; Well no.=2703): 102%

O=S(=O)(O)c1ccc(N=Nc2c(O)ccc3cc(S(=O)(=O)O)ccc23)cc1 [Sunset Yellow FCF]
remaining activity at 3.75 µM ([1]; Well no.=8500): 92.1% | remaining activity at 1.25 µM ([2]; Well no.=8500): 95.1%

CCOCC(O)COc1ccc(NC(=O)CC[S+](C)C)cc1 (stereo not shown) [Suplatast tosylate]
remaining activity at 3.75 µM ([1]; Well no.=4714): 106% | remaining activity at 1.25 µM ([2]; Well no.=4714): 107%

Cc1ccc(C(=O)Nc2ccc(S(=O)(=O)O)c3cc(S(=O)(=O)O)cc(S(=O)(=O)O)c23)cc1NC(=O)c1cccc(NC(=O)Nc2cccc(C(=O)Nc3cc(C(=O)Nc4ccc(S(=O)(=O)O)c5cc(S(=O)(=O)O)cc(S(=O)(=O)O)c45)ccc3C)c2)c1 [Suramin (sodium salt)]
remaining activity at 3.75 µM ([1]; Well no.=8141): 98.9% | remaining activity at 1.25 µM ([2]; Well no.=8141): 105%

Cc1ccc(C(=O)Nc2ccc(S(=O)(=O)O)c3cc(S(=O)(=O)O)cc(S(=O)(=O)O)c23)cc1NC(=O)c1cccc(NC(=O)Nc2cccc(C(=O)Nc3cc(C(=O)Nc4ccc(S(=O)(=O)O)c5cc(S(=O)(=O)O)cc(S(=O)(=O)O)c45)ccc3C)c2)c1 [Suramin]
remaining activity at 3.75 µM ([1]; Well no.=1622): 96.7% | remaining activity at 1.25 µM ([2]; Well no.=1622): 99.2%

O[C@H]1[C@H]2[C@H](O)CCCN2C[C@H]1O [Swainsonine]
remaining activity at 3.75 µM ([1]; Well no.=3176): 100% | remaining activity at 1.25 µM ([2]; Well no.=3176): 97.3%

O=[N+]([O-])/C=C/c1ccc2c(c1)OCO2 [Syk Inhibitor III]
remaining activity at 3.75 µM ([1]; Well no.=2599): 97.6% | remaining activity at 1.25 µM ([2]; Well no.=2599): 97.9%

NCCNc1ncc(C(N)=O)c(Nc2cccc(C(F)(F)F)c2)n1 [Syk Inhibitor II]
remaining activity at 3.75 µM ([1]; Well no.=2597): 101% | remaining activity at 1.25 µM ([2]; Well no.=2597): 99.7%

Cn1cc(/C=C2\C(=O)Nc3ccc(S(N)(=O)=O)cc32)c2ccccc21 [Syk Inhibitor]
remaining activity at 3.75 µM ([1]; Well no.=2595): 96.7% | remaining activity at 1.25 µM ([2]; Well no.=2595): 96.8%

CNCC(O)c1ccc(O)cc1 (stereo not shown) [Synephrine (hydrochloride)]
remaining activity at 3.75 µM ([1]; Well no.=6699): 101% | remaining activity at 1.25 µM ([2]; Well no.=6699): 100%

CNCC(O)c1ccc(O)cc1 (stereo not shown) [Synephrine HCl]
remaining activity at 3.75 µM ([1]; Well no.=4900): 91.7% | remaining activity at 1.25 µM ([2]; Well no.=4900): 95.6%

CCOC(=O)Oc1c(OC)cc(C(=O)O[C@@H]2C[C@@H]3CN4CCc5c([nH]c6cc(OC)ccc56)[C@H]4C[C@@H]3[C@H](C(=O)OC)[C@H]2OC)cc1OC [Syrosingopine]
remaining activity at 3.75 µM ([1]; Well no.=3310): 98.6% | remaining activity at 1.25 µM ([2]; Well no.=3310): 100%

Cc1cc(C(=O)Nc2cccc(C(=O)Nc3cccc(C(F)(F)F)c3)c2)on1 [T56-LIMKi]
remaining activity at 3.75 µM ([1]; Well no.=5920): 98.1% | remaining activity at 1.25 µM ([2]; Well no.=5920): 101%

O=C(Nc1ccncc1)c1cc([N+](=O)[O-])ccc1Cl [T0070907]
remaining activity at 3.75 µM ([1]; Well no.=4833): 106% | remaining activity at 1.25 µM ([2]; Well no.=4833): 103%

COC(=O)c1c(-c2cc(OC)c(OC)c(OC)c2)c2ccnc(OCc3ncccn3)c2c(=O)n1Cc1ccnc(C)c1 [T-0156]
remaining activity at 3.75 µM ([1]; Well no.=1230): 102% | remaining activity at 1.25 µM ([2]; Well no.=1230): 102%

COc1cn(-c2ccc(-n3cccn3)cc2F)nc(-c2ccnn2-c2ccccc2)c1=O [TAK-063]
remaining activity at 3.75 µM ([1]; Well no.=8728): 94.2% | remaining activity at 1.25 µM ([2]; Well no.=8728): 98.2%

CC(=O)N1CCC(C(=O)N(CCCN2CCC(Cc3ccc(C(N)=O)cc3)CC2)c2ccc(C)c(Cl)c2)CC1 [TAK-220]
remaining activity at 3.75 µM ([1]; Well no.=8363): 92.9% | remaining activity at 1.25 µM ([2]; Well no.=8363): 94.6%

NS(=O)(=O)OC[C@H]1C[C@@H](Nc2ccnc3cc(-c4cccc(SC(F)(F)F)c4)nn23)[C@H](O)[C@@H]1O [TAK-243]
remaining activity at 3.75 µM ([1]; Well no.=7078): 97% | remaining activity at 1.25 µM ([2]; Well no.=7078): 102%

CC(C)(O)CC(=O)NCCn1ccc2ncnc(Nc3ccc(Oc4cccc(C(F)(F)F)c4)c(Cl)c3)c21 [TAK-285]
remaining activity at 3.75 µM ([1]; Well no.=4743): 104% | remaining activity at 1.25 µM ([2]; Well no.=4743): 102%

CNCc1cc(-c2ccccc2F)n(S(=O)(=O)c2cccnc2)c1 [TAK-438]
remaining activity at 3.75 µM ([1]; Well no.=4794): 93% | remaining activity at 1.25 µM ([2]; Well no.=4794): 91.8%

CNC(=O)c1ccc2cc([C@@]3(O)CCn4cncc43)ccc2c1 [TAK-700 (Orteronel)]
remaining activity at 3.75 µM ([1]; Well no.=4725): 96.7% | remaining activity at 1.25 µM ([2]; Well no.=4725): 98.2%

CCc1nc(-c2cccc(C)c2)c(-c2ccnc(NC(=O)c3ccccc3)c2)s1 [TAK-715]
remaining activity at 3.75 µM ([1]; Well no.=2751): 104% | remaining activity at 1.25 µM ([2]; Well no.=2751): 99.2%

Cn1c(=O)c(F)c(Nc2ccc(I)cc2F)c2c(=O)n(C[C@@H](O)CO)cnc21 [TAK-733]
remaining activity at 3.75 µM ([1]; Well no.=4954): 97.8% | remaining activity at 1.25 µM ([2]; Well no.=4954): 101%

Cc1ccc(-c2ccc3c(c2)C=C(C(=O)Nc2ccc(C[N+](C)(C)C4CCOCC4)cc2)CCC3)cc1 [TAK-779]
remaining activity at 3.75 µM ([1]; Well no.=8357): 101% | remaining activity at 1.25 µM ([2]; Well no.=8357): 102%

Cc1cc(OCCCS(C)(=O)=O)cc(C)c1-c1cccc(COc2ccc3c(c2)OC[C@H]3CC(=O)O)c1 [TAK-875]
remaining activity at 3.75 µM ([1]; Well no.=4966): 91.6% | remaining activity at 3.75 µM ([1]; Well no.=7771): 103% | remaining activity at 1.25 µM ([2]; Well no.=4966): 96.6% | remaining activity at 1.25 µM ([2]; Well no.=7771): 107%

CCS(=O)(=O)c1cccc(-c2cc(C(=O)NC3CCN(C)CC3)c(C)c3[nH]c4ncc(C)cc4c23)c1 [TAK-901]
remaining activity at 3.75 µM ([1]; Well no.=4691): 100% | remaining activity at 1.25 µM ([2]; Well no.=4691): 96.9%

Brc1c(Br)c(Br)c2n[nH]nc2c1Br [TBB - 4,5,6,7-Tetrabromobenzotriazole]
remaining activity at 3.75 µM ([1]; Well no.=2494): 103% | remaining activity at 1.25 µM ([2]; Well no.=2494): 100%

O=C1OC(/C=C/c2ccccc2)=NC/1=C/c1cccnc1 [TC-DAPK 6]
remaining activity at 3.75 µM ([1]; Well no.=6734): 90.3% | remaining activity at 1.25 µM ([2]; Well no.=6734): 96.1%

CNc1nc(NCc2ccc(NS(C)(=O)=O)cc2Cl)cc(-c2ccccn2)n1 [TC-G-1008]
remaining activity at 3.75 µM ([1]; Well no.=7769): 95.1% | remaining activity at 1.25 µM ([2]; Well no.=7769): 98.1%

Nc1nccc(/C=C/c2ccccc2)n1 [TCN238]
remaining activity at 3.75 µM ([1]; Well no.=7855): 94.5% | remaining activity at 1.25 µM ([2]; Well no.=7855): 99.5%

O=C(NNC(=O)c1ccc(CNS(=O)(=O)c2ccc(F)c(Cl)c2)cc1)c1ccccc1 [TCN-201]
remaining activity at 3.75 µM ([1]; Well no.=5514): 97.4% | remaining activity at 1.25 µM ([2]; Well no.=5514): 96.4%

Clc1cnc(Oc2ccc(Oc3ncc(Cl)cc3Cl)cc2)c(Cl)c1 [TCPOBOP]
remaining activity at 3.75 µM ([1]; Well no.=1425): 102% | remaining activity at 1.25 µM ([2]; Well no.=1425): 102%

COc1ccc(C(=O)Nc2sc3c(c2C(N)=O)CCCC3)cc1OC [TCS 359 - 2-[(3,4-Dimethoxybenzoyl)amino]-4,5,6,7-benzo[b]thiophene-3-carboxamide]
remaining activity at 3.75 µM ([1]; Well no.=2580): 90% | remaining activity at 1.25 µM ([2]; Well no.=2580): 93.7%

Cn1c(SCC(=O)N2CCC[C@H]2C(=O)Nc2ccccc2-c2ccccc2)nc2ccccc21 [TCS 1102]
remaining activity at 3.75 µM ([1]; Well no.=8429): 98.6% | remaining activity at 1.25 µM ([2]; Well no.=8429): 98.6%
